Results: ChEMBL document CHEMBL2034954, “Synthesis and antimycobacterial activity of novel 1,3-dimethylisocyanurate derivatives” (Eur J Med Chem, 2012)
In brackets after ≈: the same amount, converted by molar mass. Activity calls are given as the source filed them. No cut-off for these calls is given here.

Experiments:
[1] = tested on: Mycobacterium tuberculosis; assay: Antitubercular activity against Mycobacterium tuberculosis H37Rv at 10 ug/mL by radiometric growth assay; type: functional, organism-based
[2] = tested on: Mycobacterium tuberculosis; assay: Antitubercular activity against Mycobacterium tuberculosis H37Rv at 1 ug/mL by radiometric growth assay; type: functional, organism-based
[3] = tested on: Mycobacterium tuberculosis; assay: Antitubercular activity against Mycobacterium tuberculosis H37Rv after […] by radiometric growth assay; type: functional
[4] = tested on: Mycobacterium tuberculosis; assay: Bacteriostatic activity against Mycobacterium tuberculosis H37Rv at 25 ug/mL assessed as growth index after 3 days by radiometric growth assay (reference value: 210 growth index); type: functional
[5] = tested on: Mycobacterium tuberculosis; assay: Bacteriostatic activity against Mycobacterium tuberculosis H37Rv at 1 ug/mL assessed as growth index after 7 days by radiometric growth assay (reference value: 210 growth index); type: functional
[6] = tested on: Mycobacterium tuberculosis; assay: Bacteriostatic activity against Mycobacterium tuberculosis H37Rv at 5 ug/mL assessed as growth index after 7 days by radiometric growth assay (reference value: 210 growth index); type: functional
[7] = tested on: Mycobacterium tuberculosis; assay: Bacteriostatic activity against Mycobacterium tuberculosis H37Rv at 5 ug/mL assessed as growth index after 10 days by radiometric growth assay (reference value: 210 growth index); type: functional
[8] = tested on: Mycobacterium tuberculosis; assay: Bacteriostatic activity against Mycobacterium tuberculosis H37Rv at 5 ug/mL assessed as growth index after 4 days by radiometric growth assay (reference value: 210 growth index); type: functional
[9] = tested on: Mycobacterium tuberculosis; assay: Bacteriostatic activity against Mycobacterium tuberculosis H37Rv at 1 ug/mL assessed as growth index after 10 days by radiometric growth assay (reference value: 210 growth index); type: functional
[10] = tested on: Mycobacterium tuberculosis; assay: Bacteriostatic activity against Mycobacterium tuberculosis H37Rv at 1 ug/mL assessed as growth index after 4 days by radiometric growth assay (reference value: 210 growth index); type: functional
[11] = tested on: Mycobacterium tuberculosis; assay: Bacteriostatic activity against Mycobacterium tuberculosis H37Rv at 1 ug/mL assessed as growth index after 3 days by radiometric growth assay (reference value: 210 growth index); type: functional
[12] = tested on: Mycobacterium tuberculosis; assay: Bacteriostatic activity against Mycobacterium tuberculosis H37Rv at 1 ug/mL assessed as growth index after 5 days by radiometric growth assay (reference value: 210 growth index); type: functional
[13] = tested on: Mycobacterium tuberculosis; assay: Bacteriostatic activity against Mycobacterium tuberculosis H37Rv at 5 ug/mL assessed as growth index after 5 days by radiometric growth assay (reference value: 210 growth index); type: functional
[14] = tested on: Mycobacterium tuberculosis; assay: Bacteriostatic activity against Mycobacterium tuberculosis H37Rv at 5 ug/mL assessed as growth index after 3 days by radiometric growth assay (reference value: 210 growth index); type: functional
[15] = tested on: Mycobacterium tuberculosis; assay: Bacteriostatic activity against Mycobacterium tuberculosis H37Rv at 0.05 ug/mL assessed as growth index after 4 days by radiometric growth assay (reference value: 210 growth index); type: functional
[16] = tested on: Mycobacterium tuberculosis; assay: Bacteriostatic activity against Mycobacterium tuberculosis H37Rv at 0.05 ug/mL assessed as growth index after 3 days by radiometric growth assay (reference value: 210 growth index); type: functional
[17] = tested on: Mycobacterium tuberculosis; assay: Bacteriostatic activity against Mycobacterium tuberculosis H37Rv at 0.1 ug/mL assessed as growth index after 4 days by radiometric growth assay (reference value: 210 growth index); type: functional
[18] = tested on: Trichophyton mentagrophytes; assay: Antifungal activity against Trichophyton mentagrophytes 1773 up to 1 ug/mL after 14 days by broth dilution method; type: functional, organism-based
[19] = tested on: Mycobacterium tuberculosis; assay: Bacteriostatic activity against Mycobacterium tuberculosis H37Rv at 0.1 ug/mL assessed as growth index after 3 days by radiometric growth assay (reference value: 210 growth index); type: functional
[20] = tested on: Mycobacterium tuberculosis; assay: Bacteriostatic activity against Mycobacterium tuberculosis H37Rv at 0.1 ug/mL assessed as growth index after 10 days by radiometric growth assay (reference value: 210 growth index); type: functional
[21] = tested on: Mycobacterium tuberculosis; assay: Bacteriostatic activity against Mycobacterium tuberculosis H37Rv at 0.05 ug/mL assessed as growth index after 5 days by radiometric growth assay (reference value: 210 growth index); type: functional
Rattus norvegicus = assay: Acute toxicity in rat assessed as mortality at 3000 mg/kg, po after 14 days; type: organism-based; parameters: dose 3000 mg/kg, route oral; details: in vivo, 336 h
Staphylococcus aureus = assay: Antibacterial activity against Staphylococcus aureus 209p up to 1 ug/mL after 5 days by broth dilution method; type: functional, organism-based
[22] = tested on: Mycobacterium tuberculosis; assay: Bacteriostatic activity against Mycobacterium tuberculosis H37Rv at 0.05 ug/mL assessed as growth index after 7 days by radiometric growth assay (reference value: 210 growth index); type: functional
Bacillus cereus = assay: Antibacterial activity against Bacillus cereus 8035 up to 1 ug/mL after 5 days by broth dilution method; type: functional, organism-based
Candida albicans = assay: Antifungal activity against Candida albicans 855-653 up to 1 ug/mL after 14 days by broth dilution method; type: functional, organism-based
[23] = tested on: Mycobacterium tuberculosis; assay: Bacteriostatic activity against Mycobacterium tuberculosis H37Rv at 0.1 ug/mL assessed as growth index after 5 days by radiometric growth assay (reference value: 210 growth index); type: functional
[24] = tested on: Mycobacterium tuberculosis; assay: Bacteriostatic activity against Mycobacterium tuberculosis H37Rv at 0.1 ug/mL assessed as growth index after 7 days by radiometric growth assay (reference value: 210 growth index); type: functional
Aspergillus niger = assay: Antifungal activity against Aspergillus niger BKMF-1119 up to 1 ug/mL after 14 days by broth dilution method; type: functional, organism-based
Mus musculus = assay: Acute toxicity in white outbred mouse assessed as mortality at 3000 mg/kg, po after 14 days; type: organism-based; parameters: dose 3000 mg/kg, route oral; details: in vivo, 336 h
Escherichia coli = assay: Antibacterial activity against Escherichia coli F-50 up to 1 ug/mL after 5 days by broth dilution method; type: functional, organism-based
[25] = tested on: Mycobacterium tuberculosis; assay: Bacteriostatic activity against Mycobacterium tuberculosis H37Rv at 0.5 ug/mL assessed as growth index after 3 days by radiometric growth assay (reference value: 210 growth index); type: functional
[26] = tested on: Mycobacterium tuberculosis; assay: Bacteriostatic activity against Mycobacterium tuberculosis H37Rv at 0.5 ug/mL assessed as growth index after 5 days by radiometric growth assay (reference value: 210 growth index); type: functional
[27] = tested on: Mycobacterium tuberculosis; assay: Bacteriostatic activity against Mycobacterium tuberculosis H37Rv at 0.5 ug/mL assessed as growth index after 4 days by radiometric growth assay (reference value: 210 growth index); type: functional
[28] = tested on: Mycobacterium tuberculosis; assay: Bacteriostatic activity against Mycobacterium tuberculosis H37Rv at 0.5 ug/mL assessed as growth index after 10 days by radiometric growth assay (reference value: 210 growth index); type: functional
[29] = tested on: Mycobacterium tuberculosis; assay: Bacteriostatic activity against Mycobacterium tuberculosis H37Rv at 0.5 ug/mL assessed as growth index after 7 days by radiometric growth assay (reference value: 210 growth index); type: functional
[30] = tested on: Mycobacterium tuberculosis; assay: Antitubercular activity against Mycobacterium tuberculosis H37Rv at 80 ug/mL by radiometric growth assay; type: functional, organism-based
[31] = tested on: Mycobacterium tuberculosis; assay: Antitubercular activity against Mycobacterium tuberculosis H37Rv at 40 ug/mL by radiometric growth assay; type: functional, organism-based

SMILES: NNC(=O)c1ccncc1 [ISONIAZID]
- Activity [1]: Active
- Activity [2]: Active
- MIC [3]: 0.1 µg/mL (≈ 0.729 µM)

SMILES: Cn1c(=O)n(C)c(=O)n(CCS(=O)(=O)CC(N)=O)c1=O
- Growth_index [4]: >90
- MIC [3]: 25 µg/mL (≈ 81.6 µM)

SMILES: Cn1c(=O)n(C)c(=O)n(CCCCCC[S+]([O-])CC(N)=O)c1=O (stereo not given)
- Growth_index [5]: 54
- Growth_index [6]: 66
- Growth_index [7]: 66
- Growth_index [8]: 31
- Growth_index [9]: >90
- Growth_index [10]: 45
- Growth_index [11]: 25
- Growth_index [12]: 47
- Growth_index [13]: 42
- Growth_index [14]: 15
- MIC [3]: 1 µg/mL (≈ 2.89 µM)

SMILES: Cn1c(=O)n(C)c(=O)n(CC[S+]([O-])CC(N)=O)c1=O (stereo not given)
- Growth_index [4]: >90
- MIC [3]: 10 µg/mL (≈ 34.4 µM)

SMILES: Cn1c(=O)n(C)c(=O)n(CCCCC[S+]([O-])CC(=O)NN)c1=O (stereo not given)
- Growth_index [15]: 27
- Growth_index [16]: 15
- Growth_index [17]: 0
- Activity [18]: inactive
- Growth_index [19]: 0
- Growth_index [20]: 2
- Growth_index [21]: 32
- Activity (Rattus norvegicus): Non-toxic
- Activity (Staphylococcus aureus): inactive
- Growth_index [22]: >90
- Activity (Bacillus cereus): inactive
- Activity (Candida albicans): inactive
- Growth_index [23]: 1
- Activity [1]: Active
- Growth_index [24]: 2
- Activity (Aspergillus niger): inactive
- Activity [2]: Active
- Activity (Mus musculus): Non-toxic
- Activity (Escherichia coli): inactive
- MIC [3]: 0.05 µg/mL (≈ 0.144 µM)

SMILES: Cn1c(=O)n(C)c(=O)n(CS(=O)(=O)CC(=O)NN)c1=O
- Growth_index [5]: 20
- Growth_index [25]: 25
- Growth_index [26]: 52
- Growth_index [17]: 43
- Growth_index [19]: 35
- Growth_index [20]: 47
- Growth_index [9]: 20
- Growth_index [10]: 20
- Growth_index [27]: 41
- Growth_index [23]: 47
- Growth_index [11]: 20
- Growth_index [28]: 52
- Growth_index [24]: 47
- Growth_index [29]: 52
- MIC [3]: 0.1 µg/mL (≈ 0.325 µM)

SMILES: Cn1c(=O)n(C)c(=O)n(CCCCC[S+]([O-])CC(N)=O)c1=O (stereo not given)
- Growth_index [5]: >90
- Growth_index [25]: 26
- Growth_index [26]: 38
- Growth_index [17]: 27
- Growth_index [19]: 23
- Growth_index [10]: 30
- Growth_index [27]: 37
- Growth_index [23]: 30
- Growth_index [11]: 12
- Growth_index [12]: 30
- Growth_index [28]: 60
- Growth_index [24]: >90
- Growth_index [29]: 50
- MIC [3]: 0.1 µg/mL (≈ 0.301 µM)

SMILES: Cn1c(=O)n(C)c(=O)n(CCS(=O)(=O)CC(=O)NN)c1=O
- Growth_index [5]: 33
- Growth_index [25]: 25
- Growth_index [26]: 40
- Growth_index [9]: 33
- Growth_index [10]: 24
- Growth_index [27]: 40
- Growth_index [11]: 18
- Growth_index [12]: 33
- Growth_index [28]: 53
- Growth_index [29]: 40
- MIC [3]: 0.5 µg/mL (≈ 1.56 µM)

SMILES: CC1COc2c(N3CCN(C)CC3)c(F)cc3c(=O)c(C(=O)O)cn1c23 (stereo not given)
- Activity [1]: Active

SMILES: Cn1c(=O)n(C)c(=O)n(C[S+]([O-])CC(=O)NN)c1=O (stereo not given)
- Growth_index [5]: >90
- Growth_index [6]: >90
- Growth_index [8]: 17
- Growth_index [10]: 48
- Growth_index [11]: 15
- Growth_index [12]: 78
- Growth_index [13]: 67
- Growth_index [14]: 10
- MIC [3]: 1 µg/mL (≈ 3.43 µM)

SMILES: Cn1c(=O)n(C)c(=O)n(C[S+]([O-])CC(N)=O)c1=O (stereo not given)
- Growth_index [25]: 32
- Growth_index [26]: 50
- Growth_index [17]: 30
- Growth_index [19]: 30
- Growth_index [27]: 50
- Growth_index [23]: 36
- Growth_index [28]: 50
- Growth_index [24]: >90
- Growth_index [29]: 50
- MIC [3]: 0.1 µg/mL (≈ 0.362 µM)

SMILES: CO[C@H]1/C=C/O[C@@]2(C)Oc3c(C)c(O)c4c(O)c(c(/C=N/N5CCN(C)CC5)c(O)c4c3C2=O)NC(=O)/C(C)=C\C=C\[C@H](C)[C@H](O)[C@@H](C)[C@@H](O)[C@@H](C)[C@H](OC(C)=O)[C@@H]1C
- Activity [30]: Active
- Activity [31]: Active
